The record followed here is US20160084855A1, “Compositions and Methods for Modulation and Detection of Immune and Inflammatory Responses” (UNIVERSITY OF CONNECTICUT, priority 2013, published 2016).

The test system of data set [1] is spinal cord CD4+ and Foxp3+ T cells. Briefly: Flow cytometry of spinal cord mononuclear cells of mice with EAE. In kind it is in vivo, mouse. From the text: Spinal cord mononuclear cells were derived as previously described in Korn et al. “Myelin-specific regulatory T cells accumulate in the CNS but fail to control autoimmune inflammation” Nat. Med. 13:423-431 (2007) and stained for CD4 (FITC α-CD4 (GK1.5) BD Pharmingen) and Foxp3 (APC α-FoxP3 (FJK-16s; E-Bioscience), or stimulated in culture for 4 hrs with phorbol myristyl acetate and ionomycin prior to staining for Thy1.2 (PE-Cy7 anti-CD 90.2; E-Biosciences) and intracellular IFNγ (APC αIFNγ; BD Pharmingen) and IL-17 (Alexa Fluor 488 α-IL-17A; BD Pharmingen).
To characterize mechanisms by which PE DHC may enhance autoimmune disease in vivo, the experimental studies tested whether the PE DHC-mediated enhancement of EAE was associated with alterations in T cell populations at a site of disease. WT mice were immunized with the usual EAE-inducing protocol and treated on Day 0 with EtOH or PE DHC (250 ng i.p.). Within 5 days after onset of EAE, mice were sacrificed and exsanguinated, their spinal cords were removed, and the mononuclear cells were derived from the spinal cords. These cells were analyzed directly for CD4 and Foxp3 expression by flow cytometry or were stimulated with PMA and ionomycin for 4 hours and then, gating on Thy1.2+ cells, analyzed for intra-cellular interferon gamma (IFNγ) and IL-17 by flow cytometry. […] However, the percentage of CD4+ T cells within the total mononuclear cell populations derived from the spinal cords of PE DHC-treated mice was, on average, greater than the percentage in EtOH-treated mice (as illustrated in Table 2). […] The mean percentage of spinal cord cells that were CD4+ was 41% in EtOH-treated mice and, on average, 6.7% of these were Foxp3+. In contrast, the mean percentage of spinal cord cells that were CD4+ T cells was 52% in PE DHC-treated mice and, on average, 4.3% of these were Foxp3+. It has been reported in Korn et al. “Myelin-specific regulatory T cells accumulate in the CNS but fail to control autoimmune inflammation” Nat. Med. 13:423-431 (2007) that the percentage of spinal cord CD4+ Foxp3+ T cells increased as the disease progressed. […] Based on this observation, it was unlikely that the decrease in the percentage of Foxp3+ in PE-DHC-treated mice was related to differences in disease duration.
(Flow cytometry measures light scatter and fluorescence of single cells or particles in a stream.)

The nature of data set [2]: Recovery of 3-OH isoC17:0 fatty acid from brains of mice with EAE (GC-MS). In kind it is in vivo, mouse. The conditions noted are these: mice that received PE DHC and had a disease score greater than 3.0, versus PBS or EtOH controls. The method, then: Mice treated with PBS, EtOH or with 25 ng, 250 ng, or 2.5 μg PE DHC were sacrificed after day 20 post-EAE immunization. The brains were removed and extracted for phospholipids according to the method of Bligh and Dyer as previously described in Nichols “Distribution of 3-hydroxy iC17:0 in subgingival plaque and gingival tissue samples: Relationship to adult periodontitis” Infect. Immun. 62:3753-3760 (1994). Lipid extracts were dissolved in hexane isopropanol:water (6:8:0.75, v/v/v/) and three 0.5 mg aliquots were dispensed into glass tubes supplemented with 30 ng of isobranched C20:0. […] Lipids were treated to form pentofluorobenzyl ester, trimethylsilyl ether derivatives and analyzed by negative ion chemical ionization GC-MS, as described in Nichols (1994). Fatty acid recovery was quantified by selected ion monitoring for characteristic fatty acid negative ions. The data were expressed as picograms of 3-OH isobranched (iso)C17:0 per 0.5 mg of total brain lipid extracted.
The cumulative disease index (CDI) was obtained by summing the daily average disease scores through Day 20. A mean of these daily disease scores (Mean Daily Disease) (+/−SEM) was calculated based on the 20 days of observation. […] Bacterial fatty acid levels in brain lipid extracts for each treatment group were evaluated using least squares linear regression analysis that included calculation of correlation coefficients. […]

Data set [3] relates to naïve CD4+CD25− T cells with T cell-depleted splenocytes (Tds). As to the kind of experiment: In vitro generation of Th17 T cells. It is filed as cell-based, mouse. The conditions noted are these: PE DHC 20 μg/ml sonicated liposomes; WT or TLR2−/− Tds; anti-CD3, GM-CSF, TGF-β; 5 days. As for the experimental part: CD4+CD25− T cells (Teff) were derived from WT mice using magnetic bead purification (Miltenyi Biotec, Auburn, Calif.). T cell-depleted splenocytes (Tds) were derived from WT or TLR2^−/− mice using magnetic bead purification followed by irradiation (2600R). Teff (0.25×10^6/well) and Tds (0.75×10^6/well) were cultured in 24-well plates with anti-CD3 antibody (1 μg/ml), GM-CSF (20 ng/ml) (Pierce Inc., Thermo Fisher Scientific, Rockford, Ill.) and recombinant TGF-β (2 ng/ml) (R&D). In addition, LPS (2 μg/ml), MMP (5 μg/ml) or P. gingivalis PE DHC (20 μg/ml of sonicated liposome preparations) were added to wells to stimulate the secretion of IL-6. Cultures were harvested after 5 days, stimulated in culture for 4 hrs with phorbol myristyl acetate and ionomycin and stained for Thy1.2, intracellular IFNγ, and IL-17 and analyzed by FACS after gating on Thy 1.2+ cells.
PE DHC's ability to induce IL-6 secretion was characterized by testing its ability to induce Th17 T cell generation from cultures of naïve CD4+ CD25-T cells activated in the presence of APCs (T cell depleted splenocytes; Tds) and TGF-β. See Bettelli et al. “T(H)-17 cells in the circle of immunity and autoimmunity” Nat. Immunol. 2007, 8:345-350.

Values joined by “and” are separate entries in the source; they are usually repeats but may differ in a detail not shown here. Equal values may be shown once.

Regarding “phosphoethanolamine dihydroceramide [PE DHC]”, in data set [1] (WT mice, PE DHC 250 ng i.p.), the “Total number of mononuclear cells obtained from the spinal cords, versus EtOH” value is on record as “no significant difference”. The “Percentages of spinal cord CD4+ T cells staining for intra-cellular IFNγ or IL-17, versus EtOH” value in data set [1] (WT mice, PE DHC 250 ng i.p., PMA and ionomycin 4 hours) is given as “not significantly different”. In addition, in data set [1] (individual WT mice at sacrifice, PE DHC 250 ng i.p. Day 0), the “DISEASE GRADE” value is 3.3 (2×) and 3.5 and 2.9 (2×) and 3.0. The “% CD4+ in spinal cord” value in data set [1] (individual WT mice, PE DHC 250 ng i.p. Day 0, 1-5 days after onset of EAE, of total mononuclear cells) was 72.00% and 38.00% and 68.86% and 49.54% and 40.83% and 46.50%. Further, the “% Foxp3+ in spinal cord” value in data set [1] (individual WT mice, PE DHC 250 ng i.p. Day 0, after gating on CD4+ T cells) is 4.53% and 7.52% and 2.75% and 3.45% and 3.21% and 4.27%. In data set [2], the “Brain level of 3-OH isoC17:0 fatty acid” value is “higher levels of 3-OH isoC17:0 fatty acid”. In data set [3], the “Generation of Th17 T cells” value is reported as “resulted in the generation of Th17 T cells in cultures containing WT but not TLR2^−/− Tds”.
